Where two headings read alike, the source gives them in different places.
Legend:
[1] = target: T1, HCV NS3/4A protease complex (BMS strain) (UniProt P27958); test: FRET peptide assay to monitor HCV NS3/4A proteolytic activity, BMS strain; format: biochemical, Hepatitis C virus (genotype 1a); conditions: read-out: IC50 Range; HCV NS3/4A enzyme assay; Table 1
T1 construct: other: HCV NS3/4A enzyme assay; said of H77 and J4L6S; fused on or other part: Three-lysine solubilising tail at the NS4A C-terminus and a His tag from pET21b (Ni-NTA purification), for the H77 and J4L6S constructs
From the text: HCV NS3 protease complexes, derived from the BMS strain, H77 strain or J4L6S strain, were generated, as described below. These purified recombinant proteins were generated for use in a homogeneous assay (see below) to provide an indication of how effective compounds of the present disclosure would be in inhibiting HCV NS3 proteolytic activity.
Serum from an HCV-infected patient was obtained from Dr. T. Wright, San Francisco Hospital. An engineered full-length cDNA (compliment deoxyribonucleic acid) template of the HCV genome (BMS strain) was constructed from DNA fragments obtained by reverse transcription-PCR (RT-PCR) of serum RNA (ribonucleic acid) and using primers selected on the basis of homology between other genotype 1a strains. From the determination of the entire genome sequence, a genotype 1a was assigned to the HCV isolate according to the classification of Simmonds et al. (See P Simmonds, K A Rose, S Graham, S W Chan, F McOmish, B C Dow, E A Follett, P L Yap and […] Marsden, J. Clin. Microbiol., 31(6), 1493-1503 (1993)). […] The infectious clones, H77 (1a genotype) and J4L6S (1b genotype) were obtained from R. Purcell (NIH) and the sequences are published in Genbank (AAB67036, see Yanagi, M., Purcell, R. H., Emerson, S. U. and Bukh, J. Proc. Natl. Acad. Sci. U.S.A. 94(16), 8738-8743 (1997); AF054247, see Yanagi, M., St Claire, M., Shapiro, M., Emerson, S. U., Purcell, R. H. and Bukh, J, Virology 244 (1), 161-172. (1998)).
NS3/4A protease complex-containing fractions were pooled and loaded on a desalting column Superdex-S200 pre-equilibrated with buffer D (25 mM HEPES, pH 7.5, 20% glycerol, 300 mM NaCl, 0.2% Triton X-100, 10 mM βME). Sample was loaded at a flow rate of 1 mL/min. NS3/4A protease complex-containing fractions were pooled and concentrated to approximately 0.5 mg/ml. The purity of the NS3/4A protease complexes, derived from the BMS, H77 and J4L6S strains, were judged to be greater than 90% by SDS-PAGE and mass spectrometry analyses. The enzyme was stored at −80° C., thawed on ice and diluted prior to use in assay buffer.
The purpose of this in vitro assay was to measure the inhibition of HCV NS3 protease complexes, derived from the BMS strain, H77 strain or J4L6S strain, as described above, by compounds of the present disclosure. This assay provides an indication of how effective compounds of the present disclosure would be in inhibiting HCV NS3 proteolytic activity.
In order to monitor HCV NS3/4A protease activity, an NS3/4A peptide substrate was used. The substrate was RET S1 (Resonance Energy Transfer Depsipeptide Substrate; AnaSpec, Inc. cat # 22991) (FRET peptide), described by Taliani et al. in Anal. Biochem. 240(2):60-67 (1996). The sequence of this peptide is loosely based on the NS4A/NS4B natural cleavage site for the HCV NS3 protease except there is an ester linkage rather than an amide bond at the cleavage site. The peptide also contains a fluorescence donor, EDANS, near one end of the peptide and an acceptor, DABCYL, near the other end. The fluorescence of the peptide is quenched by […] resonance energy transfer (RET) between the donor and the acceptor, but as the NS3 protease cleaves the peptide the products are released from RET quenching and the fluorescence of the donor becomes apparent.
The peptide substrate was incubated with one of the three recombinant NS3/4A protease complexes, in the absence or presence of a compound of the present disclosure. The inhibitory effects of a compound were determined by monitoring the formation of fluorescent reaction product in real time using a Cytofluor Series 4000.
Assay buffer: 50 mM HEPES, pH 7.5; 0.15 M NaCl; 0.1% Triton; 15% Glycerol; 10 mM βME. Substrate: 2 μM final concentration (from a 2 mM stock solution in DMSO stored at −20° C.). HCV NS3/4A protease type 1a (1b), 2-3 nM final concentration (from a 5 μM stock solution in 25 mM HEPES, pH 7.5, 20% glycerol, 300 mM NaCl, 0.2% Triton-X100, 10 mM βME). […]

[2] = tested on: HCV replicon in HUH-7 cells; test: HCV replicon FRET assay; format: cell-based, Hepatitis C virus (strain 1b); conditions: Table 1
From the text: An HCV replicon whole cell system was established as described by Lohmann V, Korner F, Koch J, Herian U, Theilmann L, Bartenschlager R., Science 285(5424): 110-3 (1999). This system enabled us to evaluate the effects of our HCV Protease compounds on HCV RNA replication. Briefly, using the HCV strain 1b sequence described in the Lohmann paper (Assession number: AJ238799), an HCV cDNA was synthesized by Operon Technologies, Inc. (Alameda, Calif.), and the full-length replicon was then assembled in plasmid pGem9zf(+) (Promega, Madison, Wis.) using standard molecular biology techniques. The replicon consists of (i) the HCV 5′ UTR fused to the first 12 amino acids of the capsid protein, (ii) the neomycin phosphotransferase gene (neo), (iii) the IRES from encephalomyocarditis virus (EMCV), and (iv) HCV NS3 to NS5B genes and the HCV 3′ UTR. Plasmid DNAs were linearized with ScaI and RNA transcripts were synthesized in vitro using the T7 MegaScript transcription kit (Ambion, Austin, Tex.) according to manufacturer's directions. In vitro transcripts of the cDNA were transfected into the human hepatoma cell line, HUH-7. […] Resulting cell lines were characterized for positive and negative strand RNA production and protein production over time.
The HCV replicon FRET assay was developed to monitor the inhibitory effects of compounds described in the disclosure on HCV viral replication. HUH-7 cells, constitutively expressing the HCV replicon, were grown in Dulbecco's Modified Eagle Media (DMEM) (Gibco-BRL) containing 10% Fetal calf serum (FCS) (Sigma) and 1 mg/ml G418 (Gibco-BRL). Cells were seeded the night before (1.5×10^4 cells/well) in 96-well tissue-culture sterile plates. Compound and no compound controls were prepared in DMEM containing 4% FCS, 1:100 Penicillin/Streptomysin (Gibco-BRL), 1:100 L-glutamine and 5% DMSO in the dilution plate (0.5% DMSO final concentration in the assay). Compound/DMSO mixes were added to the cells and incubated for 4 days at 37° C. After 4 days, cells were first assessed for cytotoxicity using alamar Blue (Trek Diagnotstic Systems) for a CC50 reading. The toxicity of compound (CC50) was determined by adding 1/10th volume of alamarBlue to the media incubating the cells. After 4 h, the fluorescence signal from each well was read, with an excitation wavelength at 530 nm and an emission wavelength of 580 nm, using the Cytofluor Series 4000 (Perspective Biosystems). Plates were then rinsed thoroughly with Phosphate-Buffered Saline (PBS) (3 times 150 μl). The cells were lysed with 25 μl of a lysis assay reagent containing an HCV protease substrate (5× cell Luciferase cell culture lysis reagent (Promega #E153A) diluted to 1× with distilled water, NaCl added to 150 mM final, the FRET peptide substrate (as described for the enzyme assay above) diluted to 10 μM final from a 2 mM stock in 100% DMSO. The plate was then placed into the Cytofluor 4000 instrument which had been set to 340 nm excitation/490 nm emissions, automatic mode for 21 cycles and the plate read in a kinetic mode. EC50 determinations were carried out as described for the IC50 determinations.

[3] = Hepatitis C virus, Huh-7, read-out: EC50 Range, HCV replicon cell assay
[4] = read-out: EC50 Range, HCV replicon cell assay

T1 sequence (P27958 1027-1657, one chain of several): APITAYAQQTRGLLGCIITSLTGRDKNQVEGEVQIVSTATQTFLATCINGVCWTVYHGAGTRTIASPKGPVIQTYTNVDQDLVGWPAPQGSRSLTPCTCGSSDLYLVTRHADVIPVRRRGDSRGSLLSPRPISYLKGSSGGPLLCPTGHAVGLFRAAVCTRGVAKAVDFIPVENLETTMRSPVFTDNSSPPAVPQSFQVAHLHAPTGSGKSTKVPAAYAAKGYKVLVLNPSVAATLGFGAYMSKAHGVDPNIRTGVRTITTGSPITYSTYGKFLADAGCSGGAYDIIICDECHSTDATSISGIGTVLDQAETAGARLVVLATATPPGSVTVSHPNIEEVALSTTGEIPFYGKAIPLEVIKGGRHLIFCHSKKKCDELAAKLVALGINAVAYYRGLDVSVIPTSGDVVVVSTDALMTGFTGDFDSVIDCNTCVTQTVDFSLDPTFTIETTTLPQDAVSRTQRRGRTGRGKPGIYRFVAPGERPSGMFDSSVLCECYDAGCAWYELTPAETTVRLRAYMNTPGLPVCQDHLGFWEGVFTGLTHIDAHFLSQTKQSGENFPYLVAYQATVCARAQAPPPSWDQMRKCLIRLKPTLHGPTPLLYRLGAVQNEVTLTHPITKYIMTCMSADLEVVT

| Structure (SMILES) | IC50 [1] [µM] | EC50 [2, 3] [µM] | EC50 [2, 4] [µM] |
| --- | --- | --- | --- |
| C=C[C@@H]1C[C@]1(NC(=O)[C@@H]1C[C@@H](Oc2nccc3ccccc23)CN1C(=O)[C@@H](OC(=O)NCC)C(C)(C)C)C(=O)NS(=O)(=O)C1CC1 [Example 25] | 0.1 to 1 | 0.5 to 5 |  |
| C=C[C@@H]1C[C@]1(NC(=O)[C@@H]1C[C@@H](Oc2nccc3ccccc23)CN1C(=O)[C@@H](OC(=O)NC(C)C)C(C)(C)C)C(=O)NS(=O)(=O)C1CC1 [Example 26] | 0.1 to 1 | 0.5 to 5 |  |
| C=C[C@@H]1C[C@]1(NC(=O)[C@@H]1C[C@@H](Oc2nccc3ccccc23)CN1C(=O)[C@@H](OC(=O)NC1CCCCC1)C(C)(C)C)C(=O)NS(=O)(=O)C1CC1 [Example 27] | < 0.1 | 0.5 to 5 |  |
| C=C[C@@H]1C[C@]1(NC(=O)[C@@H]1C[C@@H](Oc2nccc3ccccc23)CN1C(=O)[C@@H](OC(=O)Nc1ccccc1)C(C)(C)C)C(=O)NS(=O)(=O)C1CC1 [Example 28] | 0.1 to 1 | 0.5 to 5 |  |
| C=C[C@@H]1C[C@]1(NC(=O)[C@@H]1C[C@@H](Oc2nccc3ccccc23)CN1C(=O)[C@@H](OC(=O)Nc1ccccc1OC)C(C)(C)C)C(=O)NS(=O)(=O)C1CC1 [Example 29] | 0.1 to 1 | 0.5 to 5 |  |
| C=C[C@@H]1C[C@]1(NC(=O)[C@@H]1C[C@@H](Oc2nccc3ccccc23)CN1C(=O)[C@@H](OC(=O)Nc1ccc(F)cc1)C(C)(C)C)C(=O)NS(=O)(=O)C1CC1 [Example 30] | 0.1 to 1 | 0.5 to 5 |  |
| C=C[C@@H]1C[C@]1(NC(=O)[C@@H]1C[C@@H](Oc2nccc3ccccc23)CN1C(=O)[C@@H](OC(=O)Nc1ccc(OC)cc1)C(C)(C)C)C(=O)NS(=O)(=O)C1CC1 [Example 31] | 0.1 to 1 | 0.5 to 5 |  |
| C=C[C@@H]1C[C@]1(NC(=O)[C@@H]1C[C@@H](Oc2nccc3ccccc23)CN1C(=O)[C@@H](OC(=O)Nc1ccccc1C(C)C)C(C)(C)C)C(=O)NS(=O)(=O)C1CC1 [Example 32] | 0.1 to 1 | 0.5 to 5 |  |
| C=C[C@@H]1C[C@]1(NC(=O)[C@@H]1C[C@@H](Oc2nccc3ccccc23)CN1C(=O)[C@@H](OC(=O)Nc1ccc(C(C)(C)C)cc1)C(C)(C)C)C(=O)NS(=O)(=O)C1CC1 [Example 33] | 0.1 to 1 | 0.5 to 5 |  |
| C=C[C@@H]1C[C@]1(NC(=O)[C@@H]1C[C@@H](Oc2nccc3cc(OC)ccc23)CN1C(=O)[C@@H](O)C(C)C)C(=O)NS(=O)(=O)C1CC1 [Example 50Compound 50] | 0.1 to 1 |  | 0.5 to 5 |
| C=C[C@@H]1C[C@]1(NC(=O)[C@@H]1C[C@@H](Oc2nccc3cc(OC)ccc23)CN1C(=O)[C@@H](OC(=O)NC1CCCC1)C(C)C)C(=O)NS(=O)(=O)C1CC1 [Example 51Compound 51] | < 0.1 |  | 0.5 to 5 |
| C=C[C@@H]1C[C@]1(NC(=O)[C@@H]1C[C@@H](Oc2nccc3cc(OC)ccc23)CN1C(=O)[C@@H](OC(=O)NC1(C(F)(F)F)CC1)C(C)C)C(=O)NS(=O)(=O)C1CC1 [Example 54Compound 54] | 0.1 to 1 | 0.5 to 5 |  |
| C=C[C@@H]1C[C@]1(NC(=O)[C@@H]1C[C@@H](Oc2cc(-c3cccs3)cc(-c3ccccc3)n2)CN1C(=O)[C@@H](OC(=O)NC(C)(C)C)C(C)(C)C)C(=O)NS(=O)(=O)C1CC1 [Example 55Compound 55] | < 0.1 | 0.5 to 5 |  |
| C=C[C@@H]1C[C@]1(NC(=O)[C@@H]1C[C@@H](Oc2ncnc3ccccc23)CN1C(=O)[C@@H](OC(=O)NC(C)(C)C)C(C)(C)C)C(=O)NS(=O)(=O)C1CC1 [Example 57Compound 57] | 0.1 to 1 | 0.5 to 5 |  |
| C=C[C@@H]1C[C@]1(NC(=O)[C@@H]1C[C@@H](Oc2nccc3cc(OC)ccc23)CN1C(=O)[C@@H](OC(=O)NC(C)(C)C)C(C)(C)C)C(=O)NS(=O)(=O)N(C)C [Example 58Compound 58] | < 0.1 | 0.5 to 5 |  |
| C=C[C@@H]1C[C@]1(NC(=O)[C@@H]1C[C@@H](Oc2nccc3cc(OC)ccc23)CN1C(=O)[C@@H](OC(=O)NC(C)(C)C)C(C)(C)C)C(=O)NS(=O)(=O)c1ccccc1 [Example 59Compound 59] | 0.1 to 1 | 0.5 to 5 |  |
| C=C[C@@H]1C[C@]1(NC(=O)[C@@H]1C[C@@H](Oc2nccc3cc(OC)ccc23)CN1C(=O)[C@@H](OC(=O)NC(C)(C)C)C(C)(C)C)C(=O)NS(=O)(=O)c1cn(C)cn1 [Example 60Compound 60] | > 1 | > 5 |  |

— US7323447B2, “Hepatitis C virus inhibitors” (Bristol-Myers Squibb Company, priority 2005, dated 2008)
